The target of one assay is T1, IGF-1R (Homo sapiens, UniProt P08069).
T1 construct: purchased Upstate Co. 14-465
The assay is described as follows: IGF-1R inhibitory activity (kinase reaction, time-resolved fluoroimmunoassay). The following applies: IGF-1R active recombinant enzyme, test compound 10 μmol/L. Format: biochemical. Summed up:
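Compounds were tested at a single 10 μmol/L concentration. Each was incubated with recombinant IGF-1R (200 μg/L), 10 mmol/L ATP, MgCl2/MnCl2 and Na3VO4 (pH 7.5) on immobilized poly(Glu-Tyr) peptide for 30 min at 24° C. Eu-anti-phosphotyrosine time-resolved fluorescence (340/615 nm) gave relative activity against no-compound and no-enzyme wells, reported as % inhibition.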

The next assay concerns KMS-11. Kind of assay: Cytostatic activity on human multiple myeloma cell line KMS-11 (WST-1). It is filed as cell-based. The following applies: Homo sapiens, KMS-11, 72 h, 72 hours; for inhibition at 10 µM: 10 μmol/L, read-out: cytostatic rate (%) KMS-11 (10 μmol/L); for inhibition at 1 µM: 1 μmol/L, read-out: cytostatic rate (%) KMS-11 (1 μmol/L). An outline of the steps:
(§1)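 Cytostatic rate is 100 minus % growth relative to DMSO-only wells (100%) and blank wells (0%), read by WST-1 absorbance at 450/690 nm after 2 h. Compound at 1 or 10 μmol/L final was applied for 72 h at 37 °C to cells seeded 24 h earlier.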
A general note: Tetrazolium assays rely on reduction of a dye to a coloured formazan, in cell work by metabolically active cells.

The test system of the next assay is NCI-H929. Kind of assay: Cytostatic activity on human multiple myeloma cell line NCI-H929 (WST-1). It is filed as cell-based. The following applies: Homo sapiens, NCI-H929, 72 h, 72 hours; for inhibition at 10 µM: 10 μmol/L, read-out: cytostatic rate (%) H929 (10 μmol/L); for inhibition at 1 µM: 1 μmol/L, read-out: cytostatic rate (%) H929 (1 μmol/L). An outline of the steps:
as §1

Each structure is given as a SMILES string. Where a name gives a salt, the structure may show the parent alone.

T1 sequence (P08069 959-1367 limits assumed): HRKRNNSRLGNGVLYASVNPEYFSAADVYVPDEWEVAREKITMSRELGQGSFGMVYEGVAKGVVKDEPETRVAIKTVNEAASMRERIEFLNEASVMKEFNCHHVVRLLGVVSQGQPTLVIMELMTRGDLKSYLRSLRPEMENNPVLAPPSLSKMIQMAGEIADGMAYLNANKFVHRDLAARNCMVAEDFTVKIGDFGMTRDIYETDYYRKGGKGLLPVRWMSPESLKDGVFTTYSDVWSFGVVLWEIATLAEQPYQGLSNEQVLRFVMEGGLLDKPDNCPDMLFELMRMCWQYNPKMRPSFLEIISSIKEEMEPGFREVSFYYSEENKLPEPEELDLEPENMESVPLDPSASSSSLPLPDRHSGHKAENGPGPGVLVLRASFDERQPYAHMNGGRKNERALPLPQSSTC

With `C(=C\c1n[nH]c2ccccc12)/c1ccccc1OCCc1ccccc1` [Compound 140, (E)-3-{2-[2-(2-phenylethyloxy)phenyl]vinyl}-1H-indazole], the inhibition at 10 µM at IGF-1R is 92.1%; with KMS-11 it was 58.9%; in the assay on NCI-H929 it was 104%.

`O=C(NCc1cccs1)c1ccccc1/C=C/c1n[nH]c2ccccc12` [Compound 141, (E)-2-[2-(1H-indazol-3-yl)vinyl]-N-(thiophen-2-ylmethyl)benzamide]: the inhibition at 10 µM on IGF-1R was 97.1%; with KMS-11, 117%; in the assay on NCI-H929, 114%.

In the case of `O=C(Nc1cccnc1)c1ccccc1/C=C/c1n[nH]c2ccccc12` [Compound 142, (E)-2-[2-(1H-indazol-3-yl)vinyl]-N-(pyridin-3-yl)benzamide], the inhibition at 10 µM was determined as 92.8% at IGF-1R, 84.9% with KMS-11 and 104% with NCI-H929.

For the compound `O=C(Nc1nncs1)c1ccccc1/C=C/c1n[nH]c2ccccc12` [Compound 145, (E)-2-[2-(1H-indazol-3-yl)vinyl]-N-([1,3,4]thiadiazol-2-yl)benzamide], the inhibition at 10 µM at IGF-1R was determined as 93.4%; in the assay on KMS-11 it was 116%; with NCI-H929, 126%.

For the compound `O=C1c2ccccc2C(=O)N1c1cc2c(cc1/C=C/c1n[nH]c3ccccc13)OCO2` [Compound 151, (E)-N-2-{6-[2-(1H-indazol-3-yl)vinyl]benzo[1,3]dioxol-5-yl}isoindole-1,3-dione], the results for the inhibition at 10 µM at IGF-1R, with KMS-11 and with NCI-H929 were 100%, 83.2% and 104%, respectively.

Take `Cc1cc(C(=O)Nc2ccccc2/C=C/c2n[nH]c3ccccc23)ccc1N` [Compound 158, (E)-4-amino-N-{2-[2-(1H-indazol-3-yl)vinyl]phenyl}-3-methylbenzamide]: the figures for the inhibition at 10 µM at IGF-1R, in the assay with KMS-11 and in the assay with NCI-H929 were 99.5%, 108% and 113%, respectively.

Regarding `O=C1c2ccccc2C(=O)N1c1ccccc1/C=C/c1n[nH]c2ccccc12` [Compound 159, (E)-2-{2-[2-(1H-indazol-3-yl)vinyl]phenyl}isoindole-1,3-dione], the inhibition at 10 µM at IGF-1R was 99.9%; with KMS-11 it was 75.5%; in the assay on NCI-H929 it was 104%.

Consider `NC(=S)Nc1ccccc1/C=C/c1n[nH]c2ccccc12` [Compound 161, (E)-N-{2-[2-(1H-indazol-3-yl)vinyl]phenyl}thiourea], for which the inhibition at 10 µM was 95.9% on IGF-1R, 92.8% with KMS-11 and 113% in the assay with NCI-H929.

As to `Cc1ncsc1C(=O)Nc1ccccc1/C=C/c1n[nH]c2ccccc12` [Compound 174, (E)-N-{2-[2-(1H-indazol-3-yl)vinyl]phenyl}-4-methylthiazole-5-carboxamide], the inhibition at 10 µM at IGF-1R came out at 103%; with KMS-11, 82.6%; in the assay with NCI-H929, 109%.

For `Nc1ccc2c(c1)C(=O)N(c1ccccc1/C=C/c1n[nH]c3ccccc13)C2=O` [Compound 193, (E)-5-amino-2-{2-[2-(1H-indazol-3-yl)vinyl]phenyl}isoindole-1,3-dione], the results for the inhibition at 10 µM on IGF-1R, in the assay with KMS-11 and in the assay with NCI-H929 were 100%, 167% and 124%, respectively.

`COC(=O)c1c[nH]c(-c2ccccc2/C=C/c2n[nH]c3ccccc23)n1` [Compound 195, (E)-2-{2-[2-(1H-indazol-3-yl)vinyl]phenyl}-3H-imidazole-4-carboxylic acid methyl ester]: the inhibition at 10 µM at IGF-1R is 100%; in the assay on KMS-11 it was 97.7%; in the assay on NCI-H929 it was 111%.

With `O=C1c2ccccc2CN1c1ccccc1/C=C/c1n[nH]c2ccccc12` [Compound 213, (E)-2-{2-[2-(1H-indazol-3-yl)vinyl]phenyl}-2,3-dihydroisoindole-1-one], the inhibition at 10 µM at IGF-1R was found to be 99%; in the assay on KMS-11, 121%; in the assay with NCI-H929, 127%.

In the case of `Nc1cccc2c1CN(c1ccccc1/C=C/c1n[nH]c3ccccc13)C2=O` [Compound 216, (E)-4-amino-2-{2-[2-(1H-indazol-3-yl)vinyl]phenyl}-2,3-dihydroisoindole-1-one], the inhibition at 10 µM at IGF-1R was found to be 96.5%; in the assay with KMS-11 it was 90.9%; with NCI-H929, 109%.

As to `Cc1ccsc1C(=O)Nc1cc(C(=O)N2CCN(C=O)CC2)ccc1/C=C/c1n[nH]c2ccccc12` [Compound 218, (E)-N-{2-[2-(1H-indazol-3-yl)vinyl]-5-(4-formylpiperazin-1-ylcarbonyl)phenyl}-3-methylthiophene-2-carboxamide hydrochloride], the inhibition at 10 µM on IGF-1R amounted to 98.6%. In addition, the inhibition at 1 µM with KMS-11 worked out at 106%; in the assay on NCI-H929 it was 112%.

For the compound `Cc1ccsc1C(=O)Nc1cc(C(=O)N2CCC(O)CC2)ccc1/C=C/c1n[nH]c2ccccc12` [Compound 219, (E)-N-{2-[2-(1H-indazol-3-yl)vinyl]-5-(4-hydroxypiperidin-1-ylcarbonyl)phenyl}-3-methylthiophene-2-carboxamide hydrochloride], the inhibition at 10 µM at IGF-1R was 99.4%. Moreover, the inhibition at 1 µM was 108% with KMS-11 and 111% with NCI-H929.

On to `Cc1ccsc1C(=O)Nc1cc(C(=O)N2CC[C@@H](O)C2)ccc1/C=C/c1n[nH]c2ccccc12` [Compound 220, (E)-(R)—N-{2-[2-(1H-indazol-3-yl)vinyl]-5-(3-hydroxypyrrolidin-1-ylcarbonyl)phenyl}-3-methylthiophene-2-carboxamide hydrochloride], for which the inhibition at 10 µM at IGF-1R came out at 99.3%. Also, the results for the inhibition at 1 µM in the assay on KMS-11 and with NCI-H929 were 97.9% and 110%, respectively.

In the case of `Cc1ccsc1C(=O)Nc1cc(C(=O)N2C[C@@H](C)O[C@@H](C)C2)ccc1/C=C/c1n[nH]c2ccccc12` [Compound 223, (E)-N-{2-[2-(1H-indazol-3-yl)vinyl]-5-(cis-2,6-dimethylmorpholin-4-ylcarbonyl)phenyl}-3-methylthiophene-2-carboxamide hydrochloride], the inhibition at 10 µM on IGF-1R is 101%. The inhibition at 1 µM with KMS-11 was found to be 120%; in the assay with NCI-H929 it was 119%.

Take `Cc1ccsc1C(=O)Nc1cc(CN2CCOCC2)ccc1/C=C/c1n[nH]c2ccccc12` [Compound 224, (E)-N-{2-[2-(1H-indazol-3-yl)vinyl]-5-(morpholin-4-ylmethyl)phenyl}-3-methylthiophene-2-carboxamide hydrochloride]: the inhibition at 10 µM at IGF-1R amounted to 100%. Besides, the inhibition at 1 µM in the assay on KMS-11 and in the assay with NCI-H929 was 119% each time.

On to `Cc1ccsc1C(=O)Nc1ccc(N2CCC(S(C)(=O)=O)CC2)cc1/C=C/c1n[nH]c2ccccc12` [Compound 227, (E)-N-{2-[2-(1H-indazol-3-yl)vinyl]-4-(4-methanesulfonylpiperidin-1-yl)phenyl}-3-methylthiophene-2-carboxamide hydrochloride], for which, on IGF-1R, the inhibition at 10 µM came out at 98.9%. Besides, the values for the inhibition at 1 µM with KMS-11 and in the assay with NCI-H929 were 52.9% and 113%, respectively.

`Cc1ccsc1C(=O)Nc1ccc(N2CCN(C)CC2)cc1/C=C/c1n[nH]c2ccccc12` [Compound 228, (E)-N-{2-[2-(1H-indazol-3-yl)vinyl]-4-(4-methylpiperazin-1-yl)phenyl}-3-methylthiophene-2-carboxamide]: at IGF-1R, the inhibition at 10 µM is 100%. The inhibition at 1 µM worked out at 58% in the assay on KMS-11 and 114% in the assay on NCI-H929.

On to `Cc1ccsc1C(=O)Nc1cc(C(=O)NCCN(C)C)ccc1/C=C/c1n[nH]c2ccccc12` [Compound 229, (E)-N-{5-[2-(dimethylamino)ethylcarbamoyl]-2-[2-(1H-indazol-3-yl)vinyl]phenyl}-3-methylthiophene-2-carboxamide hydrochloride], for which, on IGF-1R, the inhibition at 10 µM was found to be 99.3%. Besides, the results for the inhibition at 1 µM with KMS-11 and with NCI-H929 were 66.8% and 121%, respectively.

For `CCN(CC)CCNC(=O)c1ccc(/C=C/c2n[nH]c3ccccc23)c(NC(=O)c2sccc2C)c1` [Compound 230, (E)-N-{5-(2-diethylaminoethylcarbamoyl)-2-[2-(1H-indazol-3-yl)vinyl]phenyl}-3-methylthiophene-2-carboxamide hydrochloride], at IGF-1R, the inhibition at 10 µM is 98.9%. Besides, the inhibition at 1 µM in the assay with KMS-11 was determined as 93.8%; in the assay with NCI-H929, 124%.

For the compound `Cc1ccsc1C(=O)Nc1cc(C(=O)N2CCN(C(=O)[C@@H]3CCCN3)CC2)ccc1/C=C/c1n[nH]c2ccccc12` [Compound 231, (S)-(E)-N-{2-[2-(1H-indazol-3-yl)vinyl]-5-[4-(pyrrolidin-2-ylcarbonyl)piperazin-1-ylcarbonyl]phenyl}-3-methylthiophene-2-carboxamide], the inhibition at 10 µM on IGF-1R was 99.7%. For the same compound, the values for the inhibition at 1 µM with KMS-11 and in the assay with NCI-H929 were 80.2% and 122%, respectively.

For the compound `Cc1ccsc1C(=O)Nc1cc(CN2CCN(S(C)(=O)=O)CC2)ccc1/C=C/c1n[nH]c2ccccc12` [Compound 232, (E)-N-{2-[2-(1H-indazol-3-yl)vinyl]-5-(4-methanesulfonylpiperazin-1-ylmethyl)phenyl}-3-methylthiophene-2-carboxamide], the inhibition at 10 µM at IGF-1R worked out at 101%. Further, the results for the inhibition at 1 µM with KMS-11 and in the assay with NCI-H929 were 116% and 124%, respectively.

(Values after US7605272B2, “IGF-1R inhibitor” (Kyowa Hakko Kirin Co., Ltd., priority 2005, dated 2009).)
